Test results reported in US20240026461A1, “BCL10 MUTATIONS AS BIOMARKERS FOR TARGETED THERAPY IN B CELL LYMPHOMAS” (priority 2022, published 2024).
Values belong to the molecule of their own block, whether it stands above or below them.

How the values were obtained:
[1] = tested on: BCL10^WT expressing ABC-DLBCL xenografts; test: Xenograft, ibrutinib treatment, BCL10^WT tumors; format: in vivo, mice; settings: ibrutinib 37mpk, oral gavage, Q.D.
Description: (§1) FIG. 6A-6K illustrate that BCL10 gain-of-function mutant lymphomas are resistant to upstream Bruton's tyrosine kinase (BTK) inhibitors. FIG. 6A illustrates growth inhibition assays of human diffuse large B-cell lymphoma (HBL1) cells and OCI-Ly10 lymphoma cells expressing wild type or mutant BCL10 protein in response to the BTK inhibitor Acalabrutinib. X axis, concentration of compound (M); Y axis, inhibition of cell growth normalized to vehicle treated cells. *p<0.05; **p<0.01; ****p<0.0001; ns, not significant. FIG. 6B illustrates growth inhibition assays of human diffuse large B-cell lymphoma (HBL1) cells and OCI-Ly10 lymphoma cells expressing wild type or mutant BCL10 protein in response to the BTK inhibitor Zanubrutinib. […] FIG. 6D illustrates luciferase activity measured in the MALT1 GloSensor reporter cell lines upon BTK inhibitor Acalabrutinib treatment. […] FIG. 6E illustrates luciferase activity measured in the MALT1 GloSensor reporter cell lines upon BTK inhibitor Zanubrutinib treatment. […] FIG. 6F illustrates luciferase activity measured in the MALT1 GloSensor reporter cell lines upon BTK inhibitor Ibrutinib treatment. […] AUC was calculated with Prism. FIG. 6J graphically illustrates tumor weight measured at the endpoint of tumors formed from xenografts of HBL1 cells expressing WT and mutant BCL10 (n=5-6/group). […]

HBL1^R58Q = test: Growth inhibition assay (CellTiter Glo), HBL1 cells expressing BCL10 R58Q; format: cell-based; settings: Homo sapiens, 96 h, read-out: IC50, growth inhibition, BTK inhibitors
Description: (§2) DLBCL cell lines were cultured in exponential condition and the cell growth was determined by CellTiter Glo (Promega). 3000-5000 cells were seeded and cultured in each well of 384 well plate for 96 h and treated with compounds every 48 h. Luminescence was read at the endpoint with the Synergy NEO microplate reader (BioTek). The value of compound treated cells was normalized to their vehicle treated controls and then used to calculate IC50 in GraphPad Prism (RRID:SCR_002798).
(§3) Given the distinct functional profiles, CARD11 dependencies, and MALT1 activation effects of the BCL10 CARD and truncation mutants, the inventors designed experiments to evaluate whether, and to what extent, these mutant BCL10 proteins might confer BTK inhibitor resistance. Isogenic ABC-DLBCL cells expressing BCL10WT, BCL10^R58Q and BCL10^E140X proteins were treated with escalating doses of three chemically distinct covalent BTK inhibitors: ibrutinib, acalabrutinib, or zanubrutinib. The cellular proliferation rates of the treated cells were measured using an ATP fluorescence assay after 96 hours of drug exposure.
(§4) Isogenic BCL10^WT, BCL10^R58Q and BCL10^E140X ABC-DLBCLs were exposed to increasing concentrations of each of these compounds for 96 hours.

HBL1^E140X = test: Growth inhibition assay (CellTiter Glo), HBL1 cells expressing BCL10 E140X; format: cell-based; settings: Homo sapiens, 96 h, read-out: IC50, growth inhibition, BTK inhibitors
Description: as §2, §3, §4

OCI-LY10^WT = test: Growth inhibition assay (CellTiter Glo), OCI-Ly10 cells expressing BCL10 WT; format: cell-based; settings: Homo sapiens, 96 h, read-out: IC50, growth inhibition, BTK inhibitors
Description: as §2, §3, §4

[2] = tested on: BCL10^E140X expressing ABC-DLBCL xenografts; test: Xenograft, ibrutinib treatment, BCL10^E140X tumors; format: in vivo, mice; settings: ibrutinib 37mpk, oral gavage, Q.D.
Description: as §1

OCI-LY10^R58Q = test: Growth inhibition assay (CellTiter Glo), OCI-Ly10 cells expressing BCL10 R58Q; format: cell-based; settings: Homo sapiens, 96 h, read-out: IC50, growth inhibition, BTK inhibitors
Description: as §2, §3, §4

[3] = tested on: BCL10^R58Q expressing ABC-DLBCL xenografts; test: Xenograft, ibrutinib treatment, BCL10^R58Q tumors; format: in vivo, mice; settings: ibrutinib 37mpk, oral gavage, Q.D.
Description: as §1

OCI-LY10^E140X = test: Growth inhibition assay (CellTiter Glo), OCI-Ly10 cells expressing BCL10 E140X; format: cell-based; settings: Homo sapiens, 96 h, read-out: IC50, growth inhibition, BTK inhibitors
Description: as §2, §3, §4

HBL1^WT = test: Growth inhibition assay (CellTiter Glo), HBL1 cells expressing BCL10 WT; format: cell-based; settings: Homo sapiens, 96 h, read-out: IC50, growth inhibition, BTK inhibitors
Description: as §2, §3, §4

MALT1 (Ig1-Ig2) = biological target: T1, MALT1 (Ig1-Ig2) (human, UniProt Q9UDY8 125-309); test: His pull-down after co-expression in E. coli, Coomassie-stained SDS-PAGE
T1 construct: domain: Ig1-Ig2; also called Ig1-Ig2 construct of MALT1; MALT1 (207-309)
T1 sequence (looked up): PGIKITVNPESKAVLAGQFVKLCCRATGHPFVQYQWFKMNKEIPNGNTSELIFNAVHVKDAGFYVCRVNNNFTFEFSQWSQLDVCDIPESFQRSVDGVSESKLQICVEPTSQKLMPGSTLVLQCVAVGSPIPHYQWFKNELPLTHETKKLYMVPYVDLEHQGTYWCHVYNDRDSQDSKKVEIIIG
Description: The inventors designed experiments to determine whether there were additional MALT1-binding sites on BCL10 at its largely unstructured C-terminus. The C-terminal region was divided into two halves and MALT1 pull-down studies were performed. […] Of note, unlike the interaction between BCL10 CARD and MALT1 death domain (DD) in the filamentous form, the interaction between BCL10 C-terminal region and MALT1 Ig1-Ig2 is monomeric as assessed by gel filtration chromatography of the complex.

[4] = biological target: T2, MALT1 (of the lymphoma cell lysates, detected with anti-MALT1) (UniProt Q9UDY8 2-824, limits assumed); test: anti-Flag co-immunoprecipitation from Raji cells, anti-MALT1 blot
T2 construct: Cellular MALT1 co-precipitated or co-fractionated with Flag-BCL10; HBL1 is called a human lymphoma line
T2 sequence (looked up): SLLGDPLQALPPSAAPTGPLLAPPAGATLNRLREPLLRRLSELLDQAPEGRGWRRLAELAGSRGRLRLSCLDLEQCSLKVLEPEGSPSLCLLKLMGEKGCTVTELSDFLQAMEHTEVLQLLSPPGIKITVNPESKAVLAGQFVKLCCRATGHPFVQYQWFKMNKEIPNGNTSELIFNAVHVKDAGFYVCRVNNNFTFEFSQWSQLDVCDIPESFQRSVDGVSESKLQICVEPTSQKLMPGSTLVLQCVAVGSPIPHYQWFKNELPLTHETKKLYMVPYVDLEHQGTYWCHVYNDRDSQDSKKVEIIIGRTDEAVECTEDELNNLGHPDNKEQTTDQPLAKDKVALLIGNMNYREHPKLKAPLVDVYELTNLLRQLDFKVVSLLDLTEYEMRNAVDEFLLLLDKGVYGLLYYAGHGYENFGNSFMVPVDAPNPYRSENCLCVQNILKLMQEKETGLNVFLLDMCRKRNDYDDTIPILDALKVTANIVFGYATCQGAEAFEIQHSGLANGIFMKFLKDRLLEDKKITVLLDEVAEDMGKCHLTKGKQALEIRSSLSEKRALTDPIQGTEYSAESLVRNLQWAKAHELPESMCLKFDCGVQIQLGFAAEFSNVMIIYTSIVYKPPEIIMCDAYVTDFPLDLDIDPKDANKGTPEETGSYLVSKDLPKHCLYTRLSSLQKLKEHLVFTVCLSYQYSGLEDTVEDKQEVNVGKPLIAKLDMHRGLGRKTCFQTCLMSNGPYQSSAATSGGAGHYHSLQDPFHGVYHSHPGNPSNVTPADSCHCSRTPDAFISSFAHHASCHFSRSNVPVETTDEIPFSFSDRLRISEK
Description: Lymphoma cells (10⁸) were collected, washed with cold PBS and resuspended with lysis buffer (1% NP40, 10% glycerol, 150 mM NaCl, 20 mM Tris-HCL pH 7.5, and freshly added protease inhibitors). The lysates were centrifuged at 15,000 g, 4° C. for 15 min and the supernatant was then collected and incubated with 50 μL equilibrated anti-Flag magnetic beads (Sigma-Aldrich Cat #M8823, RRID:AB_2637089) at 4° C. for 3 h. The beads were washed 3 times with lysis buffer and followed by 3 times washing with the lysis buffer without NP40. SDS loading buffer without […] reagent was added and boiled at 95° C. for 5 min. The elution was added for […] (final 10%), and ready to run western blot after boiling at 95° C. for 5 min.
To investigate how the truncation mutants might affect CBM complex formation, Flag-tagged wild type and mutant forms of BCL10 were expressed in Raji cells, which lack constitutive B-cell receptor (BCR) signaling. Anti-Flag co-immunoprecipitations were performed on cell lysates. […] In contrast, there was less binding of MALT1 to BCL10^E140X, as well as to the similar BCL10^{K146Nfs*2} truncation mutant (FIG. 4A).

Molecule: C=CC(=O)N1CCC[C@@H](n2nc(-c3ccc(Oc4ccccc4)cc3)c3c(N)ncnc32)C1 [Ibrutinib]
tumor growth of xenografts [1]: suppressed growth
tumor growth of xenografts ([1]; listed as ibrutinib): expected growth suppression
IC50 (HBL1^R58Q): 6.1 nM
IC50 (HBL1^E140X): 11 nM
IC50 (OCI-LY10^WT): 0.66 nM
tumor growth of xenografts [2]: no significant anti-tumor effect
IC50 (OCI-LY10^R58Q): 2.2 nM
tumor growth of xenografts [3]: no significant anti-tumor effect
IC50 (OCI-LY10^E140X): 3.3 nM
IC50 (HBL1^WT): 4 nM

binding result (MALT1 (Ig1-Ig2)): no binding
B1: His-tagged BCL10 (116-164) (other)
chain: GLKCSSCEPFPDGATNNLSRSNSDESNFSEKLRASTVMYHPEGESSTTP
notes: Co-expressed with MALT1 Ig1-Ig2 in E. coli; not shown: His tag

binding result [4]: binds
B2: Flag-BCL10^E140X (other)
chain: MEPTAPSLTEEDLTEVKKDALENLRVYLCEKIIAERHFDHLRAKKILSREDTEEISCRTSSRKRAGKLLDYLQENPKGLDTLVESIRREKTQNFLIQKITDEVLKLRNIKLEHLKGLKCSSCEPFPDGATNNLSRSNSD
notes: Range 1-139 follows from the name E140X (stop codon at position 140); Expressed in Raji and HBL1 cells; also called Flag tagged E140X; truncating mutant at position 140; not shown: Flag tag
